The results in this text go back to patent US9040534B2, “[1,2,4]triazolo[4,3-a]pyrazines as P2X7 modulators” (Janssen Pharmaceutica NV, priority 2013, dated 2015).

Structures are written as SMILES. pIC50, pKi: −log10 of the molar value.

The target of experiment [1] is T1, P2X7 (Homo sapiens (Human), UniProt Q99572). Put plainly: Radioligand binding, human P2X7-1321N1 cell membranes, tritiated A-804598 tracer. The conditions noted are these: 1 hour at 4° C. On the procedure: (B) Radioligand binding: human or rat P2X7-1321N1 cells were collected and frozen @ −80° C. On the day of the experiment, cell membrane preparations were made according to standard published methods. […] The compound can be prepared as described in the literature. […] The assay was terminated by filtration (GF/B filters pre-soaked with 0.3% PEI) and washed with washing buffer (Tris-HCl 50 mM). The IC50 generated in the binding assay was corrected for tracer concentration and affinity of the tracer to derive at the affinity (Ki) of the test compounds.
T1 sequence (Q99572 whole entry): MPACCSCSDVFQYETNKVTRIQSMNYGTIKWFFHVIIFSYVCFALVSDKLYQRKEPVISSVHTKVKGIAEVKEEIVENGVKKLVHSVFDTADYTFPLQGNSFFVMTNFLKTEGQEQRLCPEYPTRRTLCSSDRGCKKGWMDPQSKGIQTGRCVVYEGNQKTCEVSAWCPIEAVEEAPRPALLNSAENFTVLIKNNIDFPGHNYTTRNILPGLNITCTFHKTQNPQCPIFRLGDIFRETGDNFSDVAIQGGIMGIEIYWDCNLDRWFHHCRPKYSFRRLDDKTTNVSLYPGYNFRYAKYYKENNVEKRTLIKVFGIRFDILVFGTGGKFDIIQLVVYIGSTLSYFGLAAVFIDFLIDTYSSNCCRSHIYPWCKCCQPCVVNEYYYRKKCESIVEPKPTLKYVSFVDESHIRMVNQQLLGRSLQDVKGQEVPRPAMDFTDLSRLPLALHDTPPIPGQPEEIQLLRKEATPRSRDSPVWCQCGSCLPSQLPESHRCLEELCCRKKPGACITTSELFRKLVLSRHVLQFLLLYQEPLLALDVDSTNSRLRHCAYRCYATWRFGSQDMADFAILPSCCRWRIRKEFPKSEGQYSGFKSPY

The target of experiment [2] is T2, rat P2X7 (Rattus norvegicus (Rat), UniProt Q64663). Kind of experiment: Radioligand binding, rat P2X7-1321N1 cell membranes, tritiated A-804598 tracer. The conditions noted are these: 1 hour at 4° C. The method, then:
(B) Radioligand binding: human or rat P2X7-1321N1 cells were collected and frozen @ −80° C. On the day of the experiment, cell membrane preparations were made according to standard published methods. The total assay volume was 100 μl:10 μl compound (10×)+(b) 40 μl tracer (2.5×)+50 μl membrane (2×). The tracer used for the assay was tritiated A-804598. The compound can be prepared as described in the literature. (Donnelly-Roberts, D. Neuropharmacology 2009, 56 (1), 223-229.) Compounds, tracer and membranes were incubated for 1 hour @ 4° C. The assay was terminated by filtration (GF/B filters pre-soaked with 0.3% PEI) and washed with washing buffer (Tris-HCl 50 mM). The IC50 generated in the binding assay was corrected for tracer concentration and affinity of the tracer to derive at the affinity (Ki) of the test compounds.

Experiment [3] deals with T1, P2X7. Kind of experiment: P2X7 antagonism in human PBMCs (LPS + Bz-ATP induced IL-1β release, ELISA). The conditions noted are these: 0.5 mM Bz-ATP; for remaining activity at 10 µM: P2X7, 10 μM compound, human PBMC, read-out: PBMC 10 μM (% control). The class given is cell-based. The method, then:
Human blood was collected using a blood donor program. PBMCs were isolated from blood using a Ficoll density gradient technique. Briefly, blood was laid on Ficoll solution and centrifuged at RT for 20 minutes at 2000 rpm. The buffy layer (between red blood cells and plasma) was carefully collected by aspiration, washed with PBS and centrifuged again at 1500 rpm for 15 minutes. The resulting cell pellet was washed and plated on 96 well-plates for experiments. For the Mouse/Human Whole Blood experiments, 150 μl of either mouse or human blood was platted on 96 well-plates. Lipopolysaccharide (LPS) (30 ng/ml) was added to each well and incubated for 1 hour. Test compounds were then added and incubated for 30 minutes. The P2X7 agonist, 2′(3′)-O-(4-benzoylbenzoyl) adenosine 5′-triphosphate (Bz-ATP) was then added at a final concentration of 0.5 mM (PBMC) or 1 mM (blood). Cells were incubated for an additional 1.5 hours. At that point, supernatant was collected and stored for IL-1β assay using manufacturer's protocol for enzyme-linked immunosorbent assay (ELISA). Data was expressed as percent control, where control is defined as the difference in IL-1β release in LPS+Bz-ATP samples and LPS only samples. Data was plotted as response (% control) versus concentration to generate IC50 values. […] In Table 2, when the data cell has been left blank, it is intended to mean that the compound was not tested in that assay.

In experiment [4] the target is T2, rat P2X7. Put plainly: Ca2+ flux (FLIPR) in 1321N1 cells expressing recombinant rat P2X7 channel. The class given is cell-based. Conditions: 250 μM BzATP. The method, then: (§1) (A) Ca^2+ Flux: 1321N1 cells expressing the recombinant human, rat or mouse P2X7 channel was cultured in HyQ DME/(HyClone/Dulbecco's Modified Eagle Medium) high glucose supplemented with 10% Fetal Bovine Serum (FBS) and appropriate selection marker. Cells were seeded at a density of 25000 cells/well (96-well clear bottom black walled plates) in 100 μl volume/well. On the day of the experiment, cell plates were washed with assay buffer, containing (in mM): 130 NaCl, 2 KCl, 1 CaCl2, 1 MgCl2, 10 HEPES, 5 glucose; pH 7.40 and 300 mOs. After the wash, cells were loaded with the Calcium-4 dye (Molecular Device) and incubated in the dark for 60 minutes. Test compounds were prepared at 250× the test concentration in neat DMSO. Intermediate 96-well compound plates were prepared by transferring 1.2 μL of the compound into 300 μL of assay buffer. A further 3× dilution occurred when transferring 50 μL/well of the compound plate to 100 μL/well in the cell plate. Cells were incubated with test compounds and dye for 30 minutes. […] The fluorescence change was measured 180 seconds after adding the agonist.

In experiment [5] the target is T1, P2X7. Kind of experiment: Ca2+ flux (FLIPR) in 1321N1 cells expressing recombinant human P2X7 channel. Conditions: 250 μM BzATP. The class given is cell-based. On the procedure:
as §1

Experiment [6] addresses T1, P2X7. Put plainly: P2X7 antagonism in human whole blood (LPS + Bz-ATP induced IL-1β release, ELISA). The conditions noted are these: 1 mM Bz-ATP. The class given is cell-based. On the procedure:
Human blood was collected using a blood donor program. PBMCs were isolated from blood using a Ficoll density gradient technique. Briefly, blood was laid on Ficoll solution and centrifuged at RT for 20 minutes at 2000 rpm. The buffy layer (between red blood cells and plasma) was carefully collected by aspiration, washed with PBS and centrifuged again at 1500 rpm for 15 minutes. The resulting cell pellet was washed and plated on 96 well-plates for experiments. […] Lipopolysaccharide (LPS) (30 ng/ml) was added to each well and incubated for 1 hour. Test compounds were then added and incubated for 30 minutes. The P2X7 agonist, 2′(3′)-O-(4-benzoylbenzoyl) adenosine 5′-triphosphate (Bz-ATP) was then added at a final concentration of 0.5 mM (PBMC) or 1 mM (blood). Cells were incubated for an additional 1.5 hours. At that point, supernatant was collected and stored for IL-1β assay using manufacturer's protocol for enzyme-linked immunosorbent assay (ELISA). Data was expressed as percent control, where control is defined as the difference in IL-1β release in LPS+Bz-ATP samples and LPS only samples. Data was plotted as response (% control) versus concentration to generate IC50 values.

T2 sequence (Q64663 whole entry): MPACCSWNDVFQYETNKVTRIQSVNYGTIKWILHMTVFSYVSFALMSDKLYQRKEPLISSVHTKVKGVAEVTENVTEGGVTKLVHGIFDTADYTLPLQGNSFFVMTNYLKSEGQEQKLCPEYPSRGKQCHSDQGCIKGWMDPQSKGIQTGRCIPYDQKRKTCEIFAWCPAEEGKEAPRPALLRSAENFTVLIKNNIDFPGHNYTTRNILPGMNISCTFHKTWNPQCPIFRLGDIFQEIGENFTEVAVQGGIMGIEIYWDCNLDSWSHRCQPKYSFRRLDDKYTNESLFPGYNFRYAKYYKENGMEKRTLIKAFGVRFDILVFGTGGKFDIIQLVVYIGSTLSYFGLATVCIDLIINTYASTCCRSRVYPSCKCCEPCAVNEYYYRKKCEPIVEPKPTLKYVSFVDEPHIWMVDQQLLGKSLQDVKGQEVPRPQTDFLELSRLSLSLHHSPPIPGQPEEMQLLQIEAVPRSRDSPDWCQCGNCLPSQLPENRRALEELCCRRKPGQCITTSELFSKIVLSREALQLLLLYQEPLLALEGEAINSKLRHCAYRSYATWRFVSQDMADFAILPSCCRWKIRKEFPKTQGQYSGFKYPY

Turning to `O=C1c2nnc(-c3cnccn3)n2CCN1Cc1cccc(C(F)(F)F)c1Cl` [Example 3, 7-[2-Chloro-3-(trifluoromethyl)benzyl]-3-pyrazin-2-yl-6,7-dihydro[1,2,4]triazolo[4,3-a]pyrazin-8(5H)-one], the pKi is 8.20 at P2X7 [1] and 7.90 at rat P2X7 [2]. Besides, the “PBMC 1 μM (% control)” value at P2X7 [3] (1 μM compound) is given as −0.6 % control. For the same compound, the pIC50 on rat P2X7 [4] is 5.03; at P2X7 [5] it was 7.35.

Take `O=C1c2nnc(-c3ccccn3)n2CCN1Cc1cccc(Cl)c1Cl` [Example 8, 7-(2,3-Dichlorobenzyl)-3-pyridin-2-yl-6,7-dihydro[1,2,4]triazolo[4,3-a]pyrazin-8(5H)-one]: the pIC50 on P2X7 [6] is 5.00; at rat P2X7 [4], less than 5.00; at P2X7 [5], 6.83. In addition, the pKi at P2X7 [1] was 7.70.

With `O=C1c2nnc(-c3ccccn3)n2CCN1Cc1cccc(C(F)(F)F)c1Cl` [Example 9, 7-[2-Chloro-3-(trifluoromethyl)benzyl]-3-pyridin-2-yl-6,7-dihydro[1,2,4]triazolo[4,3-a]pyrazin-8(5H)-one], the pIC50 at P2X7 [6] is less than 5.00; at rat P2X7 [4] it was less than 5.00; on P2X7 [5], 7.30. This compound also gave a pKi on P2X7 [1] of 8.00.

`C[C@@H]1Cn2c(nnc2-c2cnccn2)C(=O)N1Cc1cccc(Cl)c1Cl` [Example 12, (6R)-7-(2,3-Dichlorobenzyl)-6-methyl-3-pyrazin-2-yl-6,7-dihydro[1,2,4]triazolo[4,3-a]pyrazin-8(5H)-one]: on P2X7 [3], the remaining activity at 10 µM turned out to be 20.6%.

For the compound `C[C@H]1Cn2c(nnc2-c2ccc(F)cn2)C(=O)N1Cc1cccc(C(F)(F)F)c1Cl` [Example 30, (6S)-7-[2-Chloro-3-(trifluoromethyl)benzyl]-3-(5-fluoropyridin-2-yl)-6-methyl-6,7-dihydro[1,2,4]triazolo[4,3-a]pyrazin-8(5H)-one], the remaining activity at 10 µM at P2X7 [3] came out at 3.3%. For the same compound, the pIC50 on P2X7 [5] was 9.05.

Take `C[C@H]1Cn2c(nnc2C2CCCN(C(=O)OC(C)(C)C)C2)C(=O)N1Cc1cccc(C(F)(F)F)c1Cl` (stereo partly drawn) [Example 59, (6S)-tert-Butyl3-{7-[2-chloro-3-(trifluoromethyl)benzyl]-6-methyl-8-oxo-5,6,7,8-tetrahydro[1,2,4]triazolo[4,3-a]pyrazin-3-yl}piperidine-1-carboxylate]: the remaining activity at 10 µM at P2X7 [3] was determined as 10.9%. For the same compound, the pIC50 at rat P2X7 [4] was 5.94.
